± gives the expanded uncertainty stated by the source.
What was measured:
[1] = Liquid
[2] = xn = mol fraction of the nth substance listed; settings: for mass density: Other PVT measurement; for Critical density: closed cell phase equilibration

O=C=O [carbon dioxide]
Critical pressure ([1]; Direct measurement): 7360 ± 50 kPa
Critical temperature ([1]; Visual observation in a stirred cell): 304.2 ± 0.2 K

CCc1ccccc1 [ethylbenzene] + O=C=O
mass density ([2]; 303.2 K, Liquid, x1 = 0.0211): 709 ± 11 kg/m3
mass density ([2]; 303.2 K, Liquid, x1 = 0.0384): 741 ± 10 kg/m3
mass density ([2]; 303.2 K, Liquid, x1 = 0.0512): 762 ± 10 kg/m3
mass density ([2]; 303.2 K, Liquid, x1 = 0.0637): 782 ± 10 kg/m3
mass density ([2]; 303.2 K, Liquid, x1 = 0.0751): 790 ± 10 kg/m3
mass density ([2]; 303.2 K, Liquid, x1 = 0.0998): 818 ± 10 kg/m3
mass density ([2]; 308.2 K, Liquid, x1 = 0.0211): 665 ± 11 kg/m3
mass density ([2]; 308.2 K, Liquid, x1 = 0.0384): 715 ± 10 kg/m3
mass density ([2]; 308.2 K, Liquid, x1 = 0.0512): 735 ± 10 kg/m3
mass density ([2]; 308.2 K, Liquid, x1 = 0.0637): 761 ± 10 kg/m3
mass density ([2]; 308.2 K, Liquid, x1 = 0.0751): 769 ± 10 kg/m3
mass density ([2]; 308.2 K, Liquid, x1 = 0.0998): 799 ± 10 kg/m3
mass density ([2]; 313.2 K, Liquid, x1 = 0.0211): 590 ± 12 kg/m3
mass density ([2]; 313.2 K, Liquid, x1 = 0.0384): 673 ± 11 kg/m3
mass density ([2]; 313.2 K, Liquid, x1 = 0.0512): 702 ± 10 kg/m3
mass density ([2]; 313.2 K, Liquid, x1 = 0.0637): 731 ± 10 kg/m3
mass density ([2]; 313.2 K, Liquid, x1 = 0.0751): 748 ± 10 kg/m3
mass density ([2]; 313.2 K, Liquid, x1 = 0.0998): 779 ± 10 kg/m3
mass density ([2]; 318.2 K, Liquid, x1 = 0.0384): 633 ± 11 kg/m3
mass density ([2]; 318.2 K, Liquid, x1 = 0.0512): 671 ± 10 kg/m3
mass density ([2]; 318.2 K, Liquid, x1 = 0.0637): 703 ± 10 kg/m3
mass density ([2]; 318.2 K, Liquid, x1 = 0.0751): 722 ± 10 kg/m3
mass density ([2]; 318.2 K, Liquid, x1 = 0.0998): 760 ± 10 kg/m3
mass density ([2]; 323.2 K, Liquid, x1 = 0.0384): 583 ± 11 kg/m3
mass density ([2]; 323.2 K, Liquid, x1 = 0.0512): 630 ± 10 kg/m3
mass density ([2]; 323.2 K, Liquid, x1 = 0.0637): 675 ± 10 kg/m3
mass density ([2]; 323.2 K, Liquid, x1 = 0.0751): 697 ± 10 kg/m3
mass density ([2]; 323.2 K, Liquid, x1 = 0.0998): 742 ± 10 kg/m3
mass density ([2]; 328.2 K, Liquid, x1 = 0.0512): 603 ± 10 kg/m3
mass density ([2]; 328.2 K, Liquid, x1 = 0.0637): 642 ± 10 kg/m3
mass density ([2]; 328.2 K, Liquid, x1 = 0.0751): 672 ± 10 kg/m3
mass density ([2]; 328.2 K, Liquid, x1 = 0.0998): 723 ± 10 kg/m3
mass density ([2]; 333.2 K, Liquid, x1 = 0.0637): 607 ± 10 kg/m3
mass density ([2]; 333.2 K, Liquid, x1 = 0.0751): 646 ± 10 kg/m3
mass density ([2]; 333.2 K, Liquid, x1 = 0.0998): 706 ± 10 kg/m3
Critical density ([2]; Liquid, x1 = 0.0225): 520 ± 16 kg/m3
Critical density ([2]; Liquid, x1 = 0.0363): 545 ± 16 kg/m3
Critical density ([2]; Liquid, x1 = 0.0488): 580 ± 17 kg/m3

C=Cc1ccccc1 [styrene] + O=C=O
mass density ([2]; 303.2 K, Liquid, x1 = 0.0225): 721 ± 11 kg/m3
mass density ([2]; 303.2 K, Liquid, x1 = 0.0363): 755 ± 10 kg/m3
mass density ([2]; 303.2 K, Liquid, x1 = 0.0488): 774 ± 10 kg/m3
mass density ([2]; 303.2 K, Liquid, x1 = 0.0742): 805 ± 10 kg/m3
mass density ([2]; 303.2 K, Liquid, x1 = 0.101): 831 ± 10 kg/m3
mass density ([2]; 308.2 K, Liquid, x1 = 0.0225): 675 ± 11 kg/m3
mass density ([2]; 308.2 K, Liquid, x1 = 0.0363): 721 ± 10 kg/m3
mass density ([2]; 308.2 K, Liquid, x1 = 0.0488): 747 ± 10 kg/m3
mass density ([2]; 308.2 K, Liquid, x1 = 0.0742): 781 ± 10 kg/m3
mass density ([2]; 308.2 K, Liquid, x1 = 0.101): 813 ± 10 kg/m3
mass density ([2]; 313.2 K, Liquid, x1 = 0.0225): 615 ± 12 kg/m3
mass density ([2]; 313.2 K, Liquid, x1 = 0.0363): 683 ± 11 kg/m3
mass density ([2]; 313.2 K, Liquid, x1 = 0.0488): 711 ± 10 kg/m3
mass density ([2]; 313.2 K, Liquid, x1 = 0.0742): 758 ± 10 kg/m3
mass density ([2]; 313.2 K, Liquid, x1 = 0.101): 794 ± 10 kg/m3
mass density ([2]; 318.2 K, Liquid, x1 = 0.0225): 529 ± 12 kg/m3
mass density ([2]; 318.2 K, Liquid, x1 = 0.0363): 635 ± 11 kg/m3
mass density ([2]; 318.2 K, Liquid, x1 = 0.0488): 682 ± 10 kg/m3
mass density ([2]; 318.2 K, Liquid, x1 = 0.0742): 734 ± 10 kg/m3
mass density ([2]; 318.2 K, Liquid, x1 = 0.101): 774 ± 10 kg/m3
mass density ([2]; 321.2 K, Gas, x1 = 0.0225): 500 ± 10 kg/m3
mass density ([2]; 323.2 K, Liquid, x1 = 0.0363): 582 ± 11 kg/m3
mass density ([2]; 323.2 K, Liquid, x1 = 0.0488): 645 ± 10 kg/m3
mass density ([2]; 323.2 K, Liquid, x1 = 0.0742): 711 ± 10 kg/m3
mass density ([2]; 323.2 K, Liquid, x1 = 0.101): 755 ± 10 kg/m3
mass density ([2]; 328.2 K, Liquid, x1 = 0.0488): 608 ± 10 kg/m3
mass density ([2]; 328.2 K, Liquid, x1 = 0.0742): 685 ± 10 kg/m3
mass density ([2]; 328.2 K, Liquid, x1 = 0.101): 733 ± 10 kg/m3
mass density ([2]; 330.2 K, Gas, x1 = 0.0363): 527 ± 10 kg/m3
mass density ([2]; 333.2 K, Gas, x1 = 0.0488): 570 ± 10 kg/m3
mass density ([2]; 333.2 K, Liquid, x1 = 0.0742): 663 ± 10 kg/m3
mass density ([2]; 333.2 K, Liquid, x1 = 0.101): 713 ± 10 kg/m3
Critical density ([2]; Liquid, x1 = 0.0211): 504 ± 15 kg/m3
Critical density ([2]; Liquid, x1 = 0.0384): 546 ± 16 kg/m3
Critical density ([2]; Liquid, x1 = 0.0512): 560 ± 17 kg/m3
Critical density ([2]; Liquid, x1 = 0.0637): 590 ± 18 kg/m3
